The conditions of data set [1]: cited from earlier work.
For data set [2], the system named is CMV-EE210 cell line containing the epigenetically silenced GFP transgene (CMV promoter). The experiment in a line: cell-based GFP assay for DNA methylation (reactivation of silenced GFP transgene). The protocol:
The demethylating activity of DpG and GpD di-, tri-, and tetranucleotides were tested in a cell-based GFP (green fluorescent protein) assay. This assay, which is schematically illustrated in FIG. 25, has a GFP gene regulated by the CMV promoter and is sensitive to the methylation of CpG sites within the promoter. A decrease in methylation resulting from exposure to a methylation inhibitor leads to GFP expression and is readily scored. Specifically, the CMV-EE210 cell line containing the epigenetically silenced GFP transgene was used to assay for reactivation of GFP expression by flow cytometry. CMV-EE210 was made by transfecting NIH 3T3 cells with the pTR-UF/UF1/UF2 plasmid (Zolotuhin et al., 1996), which is comprised of pBS(+) (Stratagene, Inc.) containing a cytomegalovirus (CMV) promoter driving a humanized GFP gene adapted for expression in mammalian cells. After transfection, high-level GFP expressing cells were initially selected by FACS analysis and sorting using a MoFlo cytometer (Cytomation, Inc.). Decitabine, potent inhibitor of mammalian DNMT1, was used as a positive control. […] Wells were scored g1 positive if (10%) of viable cells express GFP, g2 positive if 30% of viable cells express GFP and g3 if >75% of the viable cells express GFP. […]

The text below walks through data of patent US10933079B2, “Oligonucleotide analogues incorporating 5-aza-cytosine therein” (Astex Pharmaceuticals, Inc., priority 2005, dated 2021).

For the molecule `Nc1ncn([C@H]2C[C@H](O)[C@@H](CO)O2)c(=O)n1` [Decitabine, 5-aza-2′-deoxycytidine], the total urinary excretion entry in data set [1] (humans) is recorded as “less than 1 % of the administered dose”. Also, the “penetration into the cerebrospinal fluid” value in data set [1] (man, end of a 36-hour intravenous infusion) is recorded as 14-21 % of the plasma concentration. Besides, the “GFP Expression Level” value in data set [2] (CMV-EE210 cells, three days, decitabine at 1 μM, test compound at 30-50 μM, fluorescent microscope scoring) is “g3 (g3 if >75% of the viable cells express GFP)”. Further, the IC50 (usually the point on the concentration scale where inhibition reaches its midpoint) in data set [2] (GFP 50: dose at which the GFP expression level goes from g3 to g1/2, preliminary screening) was determined as 500 nM.
